Reference: patent publication US11402382B2, “Diagnostic and therapeutic methods for cancer” (Genentech, Inc., priority 2017, dated 2022)
Where two headings read alike, the source gives them in different places.

Columns and labels:
[1] = IMmotion150 phase 2 randomized trial: safety (adverse events); details: for AEs leading to death: events: footnote a of Table 23; for Arthralgia / Constipation / Cough / Decreased appetite / Diarrhea / Dysgeusia / Epistaxis / Fatigue / Headache / Hypertension / Infections and infestations / Mucosal inflammation / Nausea / Palmar-plantar erythrodysesthesia syndrome / Proteinuria / Pruritus / Pyrexia / Rash / Stomatitis / Vomiting: AEs occurring in ≥20% of patients in any arm; for Treatment-related AE: all grade;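 on all read-outs here: Open-label multicenter randomized phase 2 trial with three treatment arms, safety set restricted to patients who actually received study drug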
Description: (§1) Study treatment consisted of atezolizumab 1200 mg fixed intravenous dose +bevacizumab 15 mg/kg every three weeks, atezolizumab 1200 mg fixed intravenous dose every three weeks, or sunitinib 50 mg/day orally for four weeks followed by two weeks of rest. On disease progression (as assessed by the investigator per RECIST v1.1), patients randomized to atezolizumab monotherapy or sunitinib had the option to cross over and receive the atezolizumab+bevacizumab combination in some regions (option was not available in Europe). In the absence of unacceptable toxicity, treatment with the combination continued until evidence of progressive disease. Where permitted, patients in the atezolizumab-containing arms could continue to be treated beyond disease progression per RECIST v1.1 until lack of clinical benefit; those in non-European nations could cross over to atezolizumab+bevacizumab therapy at any time after disease progression per RECIST v1.1, provided all eligibility criteria were met.

[2] = test system: previously untreated metastatic renal cell carcinoma (mRCC); test: IMmotion150 phase 2 randomized trial: efficacy (PFS, ORR per RECIST v1.1, IRF); assay type: in vivo, human; details: IRF-assessed
Description: A phase II clinical study, IMmotion150 (NCT01984242), was performed to evaluate the safety and tolerability of atezolizumab, alone or in combination with bevacizumab, as compared to sunitinib in patients with previously untreated metastatic renal cell carcinoma (mRCC). Integrated tumor genomic analyses were also performed to correlate molecular biomarkers with observed clinical outcomes in the phase II study.
The primary objective of this phase 2 trial was to evaluate the efficacy of atezolizumab+bevacizumab and atezolizumab monotherapy compared with sunitinib.
The original primary endpoint was PFS per Response Evaluation Criteria In Solid Tumors version 1.1 (RECIST v1.1) via IRF in the ITT population. Although patients were stratified by ≥5% PD-L1 expression on IC, the definition of PD-L1 positivity was revised from ≥5% to ≥1% PD-L1 expression on IC, based on phase 1a data, and the study protocol was amended to create PD-L1 expression on IC as a coprimary endpoint of IRF-assessed PFS. […] Secondary endpoints included investigator (INV)-assessed PFS, ORR, and duration of response (DOR) per RECIST v1.1, overall survival (OS), patient-reported outcomes, and safety. Key exploratory objectives included evaluation of the relationship between the expression of predictive and prognostic exploratory biomarkers and their association with disease status and efficacy as defined by ORR and PFS.
During the study, each cycle was six weeks (42 days) in duration, and data on tumor measurement and survival status were collected for evaluation of PFS, milestone PFS (at 24, 52, and 76 weeks), OS, and ORR per RECIST v1.1. Tumor assessments occurred at baseline and every 12 weeks ±five business days after Cycle 1, Day 1, or more frequently if clinically indicated. Patients who discontinued first-line treatment or crossover treatment were followed up for survival approximately every three months until death, withdrawal of consent, loss to follow-up, or study termination. Patients who discontinued study treatment for reasons other than disease progression (e.g., toxicity) continued to undergo scheduled tumor assessments (every 12 weeks) until death, disease progression per RECIST v1.1, withdrawal of consent, or study termination, whichever occurred first.
Kaplan-Meier methodology was used to estimate the median PFS for each treatment arm, and Kaplan-Meier curves were produced. The primary analysis was triggered when 140 INV-PFS events occurred among patients treated with atezolizumab+bevacizumab and with sunitinib or among patients treated with atezolizumab alone and with sunitinib, whichever occurred later. The HR estimates and their 95% CIs were determined by using the stratified Cox proportional hazards model. The stratification factors included prior nephrectomy, tumor PD-L1 status, and MSKCC score and were determined based on data from the electronic case report form; if such data were missing, data collected by the IxRS at the time of randomization were used. Tumor specimens were prospectively tested for PD-L1 expression on ICs by a central laboratory using the SP142 IHC assay (VENTANA, Tucson, Ariz.). IC staining was defined as follows: any discernible PD-L1 staining of any intensity in IC covering <1% or absent (ICO), between ≥1% and <5% (IC1), between ≥5% and <10% (IC2), or ≥10% (IC3) of tumor area occupied by tumor cells, associated intratumoral, and contiguous peri-tumoral desmoplastic stroma.

[3] = in vivo
Description: as §1

[4] = PD-L1+ population (≥1% PD-L1 expression on IC)
[5] = AE of special interest, All Grade
[6] = AE of special interest, Grade 3/4

Which results are given for “Atezo: anti-PD-L1 antibody atezolizumab (CAS Registry Number: 1422185-06-5), Genentech, also known as MPDL3280A”?
AEs leading to death ([1]; % of patients): (2%); AEs leading to death: events [1]: hematophagic hitiocytosis, lower respiratory tract infection; AEs leading to death ([1]; number of patients): 2 n; Treatment-related AEs leading to death ([1]; number of patients): 0 n; Stratified PFS HR (95% CI) vs sunitinib ([2]; ITT population): 1.19; complete response (CR) ([2]; ITT population): 11%; median progression-free survival (PFS) ([2]; ITT population): 6.1 months; objective response rate (ORR) ([2]; ITT population): 25%; partial response (PR) ([2]; ITT population): 14%; Stratified PFS HR (95% CI) vs sunitinib ([2]; PD-L1+ (PD-L1 IHC IC1/2/3, ≥1%)): 1.03; complete response (CR) ([2]; PD-L1+ patients): 15%; objective response rate (ORR) ([2]; PD-L1+ patients): 28%; partial response (PR) ([2]; PD-L1+ patients): 13%; median progression-free survival (PFS) [2, 4]: 5.5 months; Stratified PFS HR (95% CI) vs sunitinib ([2]; PD-L1 IHC IC2/3 (≥5%)): 0.64; Colitis [3]: 0 n; Decreased blood cortisol/adrenal insufficiency [3]: 0 n; Pneumonitis [3]: 0 n; TSH decreased/hypothyroidism [3]: 0 n; TSH increased/hyperthyroidism [3]: 0 n; treatment-related AE leading to discontinuation of treatment: demyelination [3]: 1%; treatment-related AE leading to discontinuation of treatment: nephritis [3]: 1%; treatment-related AE leading to discontinuation of treatment: pancreatitis [3]: 1%

With `CCN(CC)CCNC(=O)c1c(C)[nH]c(/C=C2\C(=O)Nc3ccc(F)cc32)c1C` [Sunitinib, N-[2-(Diethylamino)ethyl]-5-[(Z)-(5-fluoro-2-oxo-1,2-dihydro-3H-indol-3-ylidene)methyl]-2,4-dimethyl-1H-pyrrole-3-carboxamide] as the molecule, how does the “AEs leading to death” value ([1]; % of patients) read?
Its value is “(2%)”.

What about the “AEs leading to dose modification or interruption” value ([1]; % of patients) of the same molecule?
Its value is “(70%)”.

And the “AEs leading to withdrawal from treatment” value ([1]; % of patients)?
Its value is “(10%)”.

And the “Grade 3/4 AEs, any cause” value ([1]; % of patients)?
Its value is “(69%)”.

What about the “Treatment-related AEs leading to death” value ([1]; % of patients) of the same molecule?
The value was “(2%)”.

And the “Treatment-related AEs leading to withdrawal from treatment” value ([1]; % of patients)?
Its value is “(9%)”.

And the “Treatment-related grade 3/4 AEs” value ([1]; % of patients)?
The value was “(57%)”.

What about the “Treatment-related AEs leading to withdrawal from treatment” value ([1]; % of patients, listed as sunitinib) of the same molecule?
Its value is 9%.

What about the “Decreased blood cortisol/adrenal insufficiency” value [1, 5] of the same molecule?
The value was 0 n.

And the Pneumonitis [1, 5]?
The Pneumonitis was 0 n.

And the Colitis [1, 6]?
Its Colitis is 0 n.

What about the “Decreased blood cortisol/adrenal insufficiency” value [1, 6] of the same molecule?
The value was 0 n.

What about the Pneumonitis [1, 6] of the same molecule?
Its Pneumonitis is 0 n.

And the TSH decreased/hypothyroidism [1, 6]?
Its TSH decreased/hypothyroidism is 0 n.

And the TSH increased/hyperthyroidism [1, 6]?
The TSH increased/hyperthyroidism was 0 n.

And the Arthralgia [1]?
Its Arthralgia is “(18.0%)”.

What about the Constipation [1] of the same molecule?
The Constipation was “(30.0%)”.

What about the Cough [1] of the same molecule?
The Cough was “(25.0%)”.

What about the Decreased appetite [1] of the same molecule?
Its Decreased appetite is “(29.0%)”.

And the Diarrhea [1]?
Its Diarrhea is “(59.0%)”.

What about the Dysgeusia [1] of the same molecule?
Its Dysgeusia is “(30.0%)”.

And the Epistaxis [1]?
Its Epistaxis is “(12.0%)”.

And the Fatigue [1]?
The Fatigue was “(70.0%)”.

And the Headache [1]?
The Headache was “(23.0%)”.

And the Hypertension [1]?
The Hypertension was “(35.0%)”.

What about the Infections and infestations [1] of the same molecule?
The Infections and infestations was “(32.0%)”.

What about the Mucosal inflammation [1] of the same molecule?
Its Mucosal inflammation is “(33.0%)”.

What about the Nausea [1] of the same molecule?
Its Nausea is “(45.0%)”.

And the Palmar-plantar erythrodysesthesia syndrome [1]?
The Palmar-plantar erythrodysesthesia syndrome was “(40.0%)”.

And the Proteinuria [1]?
The Proteinuria was “(9.0%)”.

And the Pruritus [1]?
Its Pruritus is “(10.0%)”.

What about the Pyrexia [1] of the same molecule?
Its Pyrexia is “(12.0%)”.

And the Rash [1]?
The Rash was “(13.0%)”.

And the Stomatitis [1]?
Its Stomatitis is “(25.0%)”.

And the Vomiting [1]?
The Vomiting was “(20.0%)”.

What about the Arthralgia ([1]; number of patients) of the same molecule?
Its Arthralgia is 18.

And the Constipation ([1]; number of patients)?
The Constipation was 30.

And the Cough ([1]; number of patients)?
Its Cough is 25.

And the Decreased appetite ([1]; number of patients)?
The Decreased appetite was 29.

What about the Diarrhea ([1]; number of patients) of the same molecule?
The Diarrhea was 59.

What about the Dysgeusia ([1]; number of patients) of the same molecule?
Its Dysgeusia is 30.

And the Epistaxis ([1]; number of patients)?
The Epistaxis was 12.

What about the Fatigue ([1]; number of patients) of the same molecule?
Its Fatigue is 70.

What about the Headache ([1]; number of patients) of the same molecule?
Its Headache is 23.

And the Hypertension ([1]; number of patients)?
Its Hypertension is 35.

What about the Infections and infestations ([1]; number of patients) of the same molecule?
Its Infections and infestations is 32.

What about the Mucosal inflammation ([1]; number of patients) of the same molecule?
The Mucosal inflammation was 33.

What about the Nausea ([1]; number of patients) of the same molecule?
The Nausea was 45.

And the Palmar-plantar erythrodysesthesia syndrome ([1]; number of patients)?
The Palmar-plantar erythrodysesthesia syndrome was 40.

What about the Proteinuria ([1]; number of patients) of the same molecule?
The Proteinuria was 9.

What about the Pruritus ([1]; number of patients) of the same molecule?
The Pruritus was 10.

And the Pyrexia ([1]; number of patients)?
The Pyrexia was 12.

And the Rash ([1]; number of patients)?
Its Rash is 13.

What about the Stomatitis ([1]; number of patients) of the same molecule?
Its Stomatitis is 25.

What about the Vomiting ([1]; number of patients) of the same molecule?
The Vomiting was 20.

What about the “Treatment-related AE” value ([1]; % of patients) of the same molecule?
Its value is “(96%)”.

And the “Treatment-related AE” value ([1]; number of patients)?
The value was 96 n.

What about the “AEs leading to death: events” value [1] of the same molecule?
Its value is “sudden death (related), intestinal hemorrhage (related)”.

And the “related AE leading to treatment discontinuation: increased blood creatinine” value ([1]; in vivo)?
Its value is 2%.

And the “related AE leading to treatment discontinuation: palmar-plantar erythrodysesthesia syndrome” value ([1]; in vivo)?
The value was 2%.

What about the “AEs leading to death” value ([1]; number of patients) of the same molecule?
Its value is 2 n.

And the “AEs leading to dose modification or interruption” value ([1]; number of patients)?
The value was 70 n.

And the “AEs leading to withdrawal from treatment” value ([1]; number of patients)?
Its value is 10 n.

What about the “All-grade AEs, any cause” value ([1]; number of patients) of the same molecule?
Its value is 99 n.

And the “Grade 3/4 AEs, any cause” value ([1]; number of patients)?
Its value is 69 n.

What about the “Treatment-related AEs leading to death” value ([1]; number of patients) of the same molecule?
Its value is 2 n.

And the “Treatment-related AEs leading to withdrawal from treatment” value ([1]; number of patients)?
Its value is 9 n.

And the “Treatment-related grade 3/4 AEs” value ([1]; number of patients)?
Its value is 57 n.

And the “complete response (CR)” value ([2]; ITT population)?
Its value is 5%.

And the “median progression-free survival (PFS)” value ([2]; ITT population)?
Its value is 8.4 months.

And the “objective response rate (ORR)” value ([2]; ITT population)?
The value was 29%.

What about the “partial response (PR)” value ([2]; ITT population) of the same molecule?
Its value is 24%.

What about the “complete response (CR)” value ([2]; PD-L1+ patients) of the same molecule?
Its value is 7%.

What about the “objective response rate (ORR)” value ([2]; PD-L1+ patients) of the same molecule?
Its value is 27%.

What about the “partial response (PR)” value ([2]; PD-L1+ patients) of the same molecule?
The value was 20%.

And the “median progression-free survival (PFS)” value [2, 4]?
Its value is 7.8 months.
